Counter-ions that a name gives are not always drawn. A value given as a limit tells only on which side of the number the result lay.

In one assay the target is rat 5-HT7 receptor (Rattus norvegicus (Rat), UniProt P32305). Put plainly: r5-HT7 binding assay, competitive radioligand binding with [3H]5-CT. The gist of the method: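 Whole r5-HT7-transfected HEK-293 cells first received test compound for 10 min. They were then exposed to 100 nM 5-CT for 20 min before lysis and competitive immunoassay of cAMP. Affinity came from displacement of [3H]5-CT on membranes of the same recombinant line, expressed as Ki.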
rat 5-HT7 receptor, sequence (P32305 1-435): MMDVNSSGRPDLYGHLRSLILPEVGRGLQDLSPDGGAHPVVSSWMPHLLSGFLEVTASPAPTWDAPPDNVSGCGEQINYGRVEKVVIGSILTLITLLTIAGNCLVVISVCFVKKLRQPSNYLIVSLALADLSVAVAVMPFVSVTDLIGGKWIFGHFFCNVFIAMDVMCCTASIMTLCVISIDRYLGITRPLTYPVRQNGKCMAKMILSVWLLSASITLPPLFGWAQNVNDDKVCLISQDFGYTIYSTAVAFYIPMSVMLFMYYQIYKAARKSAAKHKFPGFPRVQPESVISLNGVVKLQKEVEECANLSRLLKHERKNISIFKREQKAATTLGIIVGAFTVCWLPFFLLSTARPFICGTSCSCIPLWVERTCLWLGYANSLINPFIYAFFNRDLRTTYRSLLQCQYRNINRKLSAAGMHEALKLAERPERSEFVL

In the next assay the target is r5-HT7 receptor (Rattus norvegicus (Rat), UniProt P32305). Briefly: HitHunter cAMP assay, antagonist testing against 100 nM 5-CT. In kind it is cell-based. The note with it: antagonist testing, 100 nM 5-CT challenge, HEK-293 r5-HT7; read-out: R5HT7 cAMP pKb (converted). How it is done: (§1) Receptor binding was performed using membrane fractions prepared from the HEK-293 cell line recombinantly expressing rat 5-HT7 receptors (NCBI accession NM_022938). Compound affinity for the rat 5-HT7 receptor subtype was evaluated by competitive radioligand binding assays using 5-carboxamido[^3H]tryptamine ([^3H]5-CT) (Amersham Biosciences, cat. 90000403) detection. HitHunter™ cAMP assays are in-vitro based competitive immunoassays. The assay was performed on the HEK-293 cell line stably transfected with r5-HT7 receptor. Cells were pre-incubated with test compounds for 10 minutes. For antagonist testing, the cells were then challenged with 100 nM 5-CT for 20 minutes. Cells were then lysed and cAMP measured according to manufacturers protocol (Amersham, cat. NET791250UC) or [^3H]mesulergine (Amersham, cat. TRK1041). The assay was performed on membranes prepared from HEK-293 cells stably transfected with h5-HT6. Following centrifugation, membranes were resuspended and incubated for 60 min at room temperature with 1.7 nM [^3H]LSD in the presence of increasing concentration of test compounds. Nonspecific binding was defined in the presence of 10 μM clozapine (Tocris, cat. TRK1068). Homogenized HEK-293 membranes expressing the human SERT were incubated in 50 mM Tris-HCl (pH 7.5), 120 mM NaCl, 5 mM KCl with [^3H]-citalopram (3 nM) with or without test compounds. Nonspecific binding was determined in the presence of 10 μM fluoxetine. Radioactivity readouts and Ki values were performed as previously described for r5-HT7. […] Compounds were assayed in their free form or as salts, as indicated in the Examples section above.
r5-HT7 receptor, sequence (P32305 1-435): as above
A general note: Cyclic AMP is a second messenger, typically raised through Gs and lowered through Gi signalling.

The next assay concerns the target human SERT (Homo sapiens (Human), UniProt P31645). Put plainly: human SERT binding assay with [3H]-citalopram on HEK-293 membranes. The following applies: read-out: hSERT binding Ki. Here is the method: as §1
Setting [1] is: rat 5-HT7 receptor, HEK-293 membranes.

human SERT, sequence (P31645 whole entry): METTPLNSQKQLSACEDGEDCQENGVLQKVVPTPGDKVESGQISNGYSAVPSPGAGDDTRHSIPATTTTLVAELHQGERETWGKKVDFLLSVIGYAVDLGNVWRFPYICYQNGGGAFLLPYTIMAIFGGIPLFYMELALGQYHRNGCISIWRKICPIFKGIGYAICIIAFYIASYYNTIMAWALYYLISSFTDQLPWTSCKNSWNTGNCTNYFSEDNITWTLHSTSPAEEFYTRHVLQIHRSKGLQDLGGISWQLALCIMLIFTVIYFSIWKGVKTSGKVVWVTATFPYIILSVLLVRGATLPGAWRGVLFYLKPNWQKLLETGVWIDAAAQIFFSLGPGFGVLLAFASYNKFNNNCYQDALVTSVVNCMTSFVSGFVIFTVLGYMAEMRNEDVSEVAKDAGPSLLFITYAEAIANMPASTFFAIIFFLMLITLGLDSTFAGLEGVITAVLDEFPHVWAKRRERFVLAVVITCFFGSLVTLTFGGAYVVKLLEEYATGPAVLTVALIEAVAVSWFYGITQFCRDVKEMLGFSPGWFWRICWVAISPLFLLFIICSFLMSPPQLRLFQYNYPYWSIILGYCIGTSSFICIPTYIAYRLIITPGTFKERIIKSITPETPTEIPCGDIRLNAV

In the case of `CC(Oc1ccc(Cl)cc1OC1CNC1)c1cccc(C(F)(F)F)c1` (racemic) [Example 105, (±)-3-[5-Chloro-2-[1-(3-trifluoromethyl-phenyl)-ethoxy]-phenoxy]-azetidine], the values for the inhibition constant (Ki) on rat 5-HT7 receptor (setting [1]) and on human SERT were 23 nM and 193 nM, respectively. Further, the Kb at r5-HT7 receptor was 50.1 nM.

Turning to `CC(Oc1ccc(Br)cc1OC1CNC1)c1cccc(C(F)(F)F)c1` (racemic) [Example 112, (±)-3-[5-Bromo-2-[1-(3-trifluoromethyl-phenyl)-ethoxy]-phenoxy]-azetidine], the Ki (as a rule, a dissociation constant, usually derived from enzyme kinetics or from competition with a known ligand) on rat 5-HT7 receptor (setting [1]) was found to be 23 nM. In addition, the Kb on r5-HT7 receptor is 31.6 nM.

For `CC(Oc1ccc(Cl)cc1OC1CNC1)c1cccc(Cl)c1` (racemic) [Example 114, (±)-3-[5-Chloro-2-[1-(3-chloro-phenyl)-ethoxly]-phenoxy]-azetidine], the inhibition constant Ki on rat 5-HT7 receptor (setting [1]) came to 14 nM; on human SERT it was 75 nM. The Kb at r5-HT7 receptor was 31.6 nM.

Turning to `Fc1ccc2c(c1)C(Oc1ccc(Cl)cc1OC1CNC1)CC2` (racemic) [Example 150, (±)-3-[5-Chloro-2-(6-fluoro-indan-1-yloxy)-phenoxy]-azetidine], the inhibition constant Ki on rat 5-HT7 receptor (setting [1]) is 10 nM; on human SERT it was 13 nM. Moreover, on r5-HT7 receptor, the Kb is 10 nM.

As for `Brc1ccc(OC2CCc3ccccc32)c(OC2CNC2)c1` (racemic) [Example 151, (±)-3-[5-Bromo-2-(indan-1-yloxy)-phenoxy]-azetidine], affinity on rat 5-HT7 receptor (setting [1]) was put at a Ki of 40 nM. Also, on r5-HT7 receptor, the Kb is 31.6 nM.

Regarding `Clc1ccc2c(c1)CCC2Oc1ccc(Br)cc1OC1CNC1` (racemic) [Example 152, (±)-3-[5-Bromo-2-(5-chloro-indan-1-yloxy)-phenoxy]-azetidine], the Ki at rat 5-HT7 receptor (setting [1]) was found to be 19 nM; at human SERT, 25 nM. In addition, the Kb on r5-HT7 receptor was 39.8 nM.

`Clc1ccc2c(c1)C(Oc1ccc(Br)cc1OC1CNC1)CC2` (racemic) [Example 153, (±)-3-[5-Bromo-2-(6-chloro-indan-1-yloxy)-phenoxy]-azetidine]: the affinity at rat 5-HT7 receptor (setting [1]) corresponds to a Ki of 84 nM. Further, at r5-HT7 receptor, the Kb is 63.1 nM.

`Cc1ccc2c(c1)C(Oc1ccc(Br)cc1OC1CNC1)CC2` (racemic) [Example 156, (±)-3-[5-Bromo-2-(6-methyl-indan-1-yloxy)-phenoxy]-azetidine]: the affinity at rat 5-HT7 receptor (setting [1]) corresponds to a Ki of 252 nM. In addition, the Kb on r5-HT7 receptor was over 10000 nM.

At rat 5-HT7 receptor (setting [1]), `CCCN1CC(Oc2cc(Br)ccc2OCc2cccc(Cl)c2)C1` [Example 4, 3-[5-Bromo-2-(3-chloro-benzyloxy)-phenoxy]-1-propyl-azetidine] showed an inhibitory constant (Ki) of 8 nM. In addition, on r5-HT7 receptor, the Kb was 0.631 nM.

`CN1CCC(Oc2cc(Br)ccc2OCc2cccc(Cl)c2)CC1` [Example 66, 4-[5-Bromo-2-(3-chloro-benzyloxy)-phenoxy]-1-methyl-piperidine] yielded a Ki at rat 5-HT7 receptor (setting [1]) of 10 nM. The Kb on r5-HT7 receptor is 50.1 nM.

The molecule `Fc1ccccc1COc1ccc(Br)cc1OC1CCNCC1` [Example 67, 4-[5-Bromo-2-(2-fluoro-benzyloxy)-phenoxy]-piperidine] registered a Ki on rat 5-HT7 receptor (setting [1]) of 13 nM. Further, on r5-HT7 receptor, the Kb was 398 nM.

In turn, `Fc1cccc(COc2ccc(Br)cc2OC2CCNCC2)c1` [Example 68, 4-[5-Bromo-2-(3-fluoro-benzyloxy)-phenoxy]-piperidine] had an inhibition constant Ki at rat 5-HT7 receptor (setting [1]) of 17 nM. For the same molecule, at r5-HT7 receptor, the Kb was 631 nM.

In the case of `CON=C(COc1ccc(Cl)cc1OC1CNC1)c1ccccc1` [Example 182, 2-[2-(Azetidin-3-yloxy)-4-chloro-phenoxy]-1-phenyl-ethanone O-methyl-oxime], the inhibition constant (Ki) at rat 5-HT7 receptor (setting [1]) was 76 nM; on human SERT, 514 nM.

Consider `FC(COc1ccc(Cl)cc1OC1CNC1)c1ccccc1` (stereo not drawn) [Example 187, 3-[5-Chloro-2-(2-fluoro-2-phenyl-ethoxy)-phenoxy]-azetidine], for which the inhibition constant Ki came to 36 nM on rat 5-HT7 receptor (setting [1]) and 340 nM on human SERT.

Regarding `Clc1cnc(OCc2ccccc2)c(OC2CNC2)c1` [Example 196, 3-(Azetidin-3-yloxy)-2-benzyloxy-5-chloro-pyridine], the inhibition constant (Ki) worked out at 359 nM on rat 5-HT7 receptor (setting [1]) and 53 nM on human SERT.

The molecule `CCN1CC(Oc2cc(F)ccc2OCc2cccc(Cl)c2)C1` [Example 207, 3-[2-(3-Chloro-benzyloxy)-5-fluoro-phenoxy]-1-ethyl-azetidine] yielded a Ki on rat 5-HT7 receptor (setting [1]) of 20 nM. Also, the Kb at r5-HT7 receptor is 15.8 nM.

As for `Fc1ccc(OCc2ccc(C(F)(F)F)o2)c(OC2CNC2)c1` [Example 208, 3-[5-Fluoro-2-(5-trifluoromethyl-furan-2-ylmethoxy)-phenoxy]-azetidine], the values for the inhibition constant Ki at rat 5-HT7 receptor (setting [1]) and at human SERT were 365 nM and 303 nM, respectively.

Regarding `CC1(Oc2cc(Br)ccc2OCc2cccc(Cl)c2)CNC1` [Example 212, 3-[5-Bromo-2-(3-chloro-benzyloxy)-phenoxy]-3-methyl-azetidine], the inhibition constant (Ki) on rat 5-HT7 receptor (rat 5-HT7, HEK-293 membranes) stood at 53 nM; at human SERT it was 41 nM.

With `CC(C)C1(Oc2cc(Br)ccc2OCc2cccc(Cl)c2)CNC1` [Example 214, 3-[5-Bromo-2-(3-chloro-benzyloxy)-phenoxy]-3-isopropyl-azetidine], the inhibition constant (Ki) was 9000 nM at rat 5-HT7 receptor (rat 5-HT7, HEK-293 membranes) and 1690 nM at human SERT.

Take `CC1(Oc2cc(Br)ccc2OCc2ccc(C(F)(F)F)o2)CNC1` [Example 216]: the Ki was determined as 16 nM on rat 5-HT7 receptor (rat 5-HT7, HEK-293 membranes) and 36 nM at human SERT.

Take `Clc1ccc(OC2CC(c3ccccc3)C2)c(OC2CNC2)c1` (stereo not drawn) [Example 228, 3-[5-Chloro-2-(3-phenyl-cyclobutoxy)-phenoxy]-azetidine]: the Ki at rat 5-HT7 receptor (rat 5-HT7, HEK-293 membranes) was determined as 9 nM; at human SERT it was 72 nM.

For `CC(C)(C)N1CC(Oc2cc(Br)ccc2OCc2cccc(F)c2)C1` [Example 229, 3-[5-Bromo-2-(3-fluoro-benzyloxy)-phenoxy]-1-tert-butyl-azetidine], the inhibition constant Ki at rat 5-HT7 receptor (rat 5-HT7, HEK-293 membranes) is 3 nM; on human SERT, 925 nM.

For `CC(C)(C)N1CC(Oc2cc(Cl)ccc2OCc2cccc(C(F)(F)F)c2)C1` [Example 230, 1-tert-Butyl-3-[5-chloro-2-(3-trifluoromethyl-benzyloxy)-phenoxy]-azetidine], the inhibitory constant (Ki) was 6 nM on rat 5-HT7 receptor (rat 5-HT7, HEK-293 membranes) and 1200 nM on human SERT.

Consider `CC(Oc1ccc(Cl)cc1OC1CN(C(C)(C)C)C1)c1cccc(C(F)(F)F)c1` (stereo not drawn) [Example 231, 1-tert-Butyl-3-[5-chloro-2-[1-(3-trifluoromethyl-phenyl)-ethoxy]-phenoxy]-azetidine], for which the Ki at rat 5-HT7 receptor (rat 5-HT7, HEK-293 membranes) amounted to 15 nM; at human SERT, 4480 nM.

With `FC(F)(F)c1ccc(COc2ccc(Br)cc2CC2CNC2)o1` [Example 232, 3-[5-Bromo-2-(5-trifluoromethyl-furan-2-ylmethoxy)-benzyl]-azetidine], the Ki at rat 5-HT7 receptor (rat 5-HT7, HEK-293 membranes) came out at 3 nM; on human SERT, 1 nM.

As to `Clc1cccc(COc2ccc(Br)cc2OCC2CNC2)c1` [Example 233, 3-[5-Bromo-2-(3-chloro-benzyloxy)-phenoxymethyl]-azetidine], the inhibition constant Ki at rat 5-HT7 receptor (rat 5-HT7, HEK-293 membranes) was found to be 27 nM; on human SERT it was 23 nM.

Molecule `Brc1cccc(Oc2ccc(Br)cc2OC2CNC2)c1` [Example 245, 3-[5-Bromo-2-(3-bromo-phenoxy)-phenoxy]-azetidine] yielded an inhibition constant (Ki) on rat 5-HT7 receptor (rat 5-HT7, HEK-293 membranes) of 9 nM. Besides, the Kb at r5-HT7 receptor is 200 nM.

Take `Clc1ccc(Oc2ccc(Br)cc2OC2CNC2)cc1` [Example 251, 3-[5-Bromo-2-(4-chloro-phenoxy)-phenoxy]-azetidine]: the Ki on rat 5-HT7 receptor (rat 5-HT7, HEK-293 membranes) worked out at 11 nM. Further, the Kb on r5-HT7 receptor is 158 nM.

Take `FC(F)(F)Oc1cccc(Oc2ccc(Br)cc2OC2CNC2)c1` [Example 253, 3-[5-Bromo-2-(3-trifluoromethoxy-phenoxy)-phenoxy]-azetidine]: the Ki on rat 5-HT7 receptor (rat 5-HT7, HEK-293 membranes) is 18 nM. In addition, the Kb at r5-HT7 receptor is 501 nM.

Molecule `Clc1cccc(Oc2ccc(Cl)cc2OC2CNC2)c1` [Example 257, 3-[5-Chloro-2-(3-chloro-phenoxy)-phenoxy]-azetidine maleate] showed a Ki on rat 5-HT7 receptor (rat 5-HT7, HEK-293 membranes) of 21 nM. The Kb at r5-HT7 receptor was 501 nM.

In turn, `Clc1ccc(Oc2ccc(Cl)cc2OC2CNC2)cc1` [Example 258, 3-[5-Chloro-2-(4-chloro-phenoxy)-phenoxy]-azetidine trifluoroacetate] gave a Ki on rat 5-HT7 receptor (rat 5-HT7, HEK-293 membranes) of 23 nM. On r5-HT7 receptor, the Kb was 501 nM.

Turning to `Clc1ccc(Oc2nc3ccccc3o2)c(OC2CNC2)c1` [Example 262, 2-[2-(Azetidin-3-yloxy)-4-chloro-phenoxy]-benzooxazole], the inhibition constant Ki at rat 5-HT7 receptor (rat 5-HT7, HEK-293 membranes) came out at 31 nM; at human SERT, 112 nM.

Take `O=C(c1ccc(Cl)cc1)c1ccc(Br)cc1OC1CNC1` [Example 281, [2-(Azetidin-3-yloxy)-4-bromo-phenyl]-(4-chloro-phenyl)-methanone]: on rat 5-HT7 receptor (rat 5-HT7, HEK-293 membranes), the affinity corresponds to a Ki of 48 nM. Besides, the Kb at r5-HT7 receptor was 316 nM.

Molecule `O=C(c1cccc(Cl)c1)c1ccc(Br)cc1OC1CNC1` [Example 282, [2-(Azetidin-3-yloxy)-4-bromo-phenyl]-(3-chloro-phenyl)-methanone] displayed a Ki at rat 5-HT7 receptor (rat 5-HT7, HEK-293 membranes) of 39 nM. In addition, the Kb on r5-HT7 receptor is 200 nM.

The values are drawn from patent US9981909B2 (Janssen Pharmaceutica NV, priority 2008, dated 2018).
